Assay results published in PMC6222316, “UPLC-MS/MS Method for the Determination of 14 Compounds in Rat Plasma and Its Application in a Pharmacokinetic Study of Orally Administered Xiaoyao Powder” (Molecules : A Journal of Synthetic Chemistry and Natural …, 2018).
Read-outs that look alike come from different tables or passages of the source.

Experiment: Pharmacokinetic study of 14 compounds in rat plasma after oral administration of XYP (UPLC-MS/MS)
Assay type: in vivo, Sprague–Dawley rats
Set-up: Kel (elimination rate constant): unit not given here
Conditions: oral XYP 4 g/kg; for AUC(0-inf) / AUC(0-t) / Cmax / half-life / MRT last / MRT inf / Tmax: female, Sprague-Dawley; for AUC(0-inf) / AUC(0-t) / Cmax / half-life / Kel (elimination rate constant): n = 6; for MRT last: n = 6, read-out: MRT0–t; for MRT inf: n = 6, read-out: MRT0–∞; for Tmax: rat, plasma, po, 4 g/kg
Method: The validated UPLC-MS/MS method was successfully applied to the pharmacokinetic study of 14 compounds in rat plasma after the oral administration of XYP at a dose of 4 g/kg (8-fold the clinical dosage).
Quantitative analysis was conducted on a Waters® Micromass® Quattro Premier™ XE triple-quadrupole tandem mass spectrometer (Waters Corp., Milford, MA, USA). Chromatographic separation was performed on an ACQUITY UPLCTM BEH C18 column (1.7 µm, 50 × 2.1 mm; Waters Corp.) equipped with an ACQUITY UPLC C18 guard column. The column temperature was maintained at 35 °C. The mobile phase consisted of 0.1% formic acid in water (A) and acetonitrile (B). The total flow rate was 0.3 mL/min. Chromatographic separation was achieved using a 14.5-min gradient elution. The gradient conditions of the mobile phase were as follows: 0–4 min, 4–22% (B); 4–5 min, 22–27% (B); 5–10 min, 27–50% (B); and 10–14.5 min, 50–96% (B). The samples were kept at 4 °C in the auto-sampler, and the injection volume was 5 µL.
Methanol (1.5 mL), 10 μg/mL IS and 300 μL plasma was mixed, then vortexed for 1 min. After centrifuging at 14,000× g for 10 min, the supernatant was put into another centrifuge tube. The residue was vortexed with another 1.5 mL methanol and centrifuged again, and the two supernatants were combined and evaporated to dryness under a flow of nitrogen gas at 40 °C. The residue was then dissolved in 100 μL methanol and vortexed for 1 min. Finally, the vortexing and centrifugation process was again repeated, and 5 μL of the supernatant was injected into the UPLC-MS/MS system for analysis.
Twenty healthy female Sprague–Dawley rats (300 ± 20 g) were purchased from the Animal Safety Evaluation Center of Heilongjiang University of Chinese Medicine (Heilongjiang, China). All protocols for animal experiments were approved in accordance with the Regulations of Experimental Animal Administration issued by the State Commission of Science and Technology of the People’s Republic of China. The rats were kept under a light/dark cycle of 12 h, within the temperature range of 24 °C ± 2 °C to room temperature, and at a humidity of 50 ± 10%. All rats were fasted for 12 h before experimentation but were allowed to drink freely. XYP extract was dissolved in water, and the rats were administrated orally with 4 g/kg XYP. Blood samples were collected from the suborbital venous lexus at 0, 0.083, 0.17, 0.33, 0.50, 0.75, 1.0, 2.0, 4.0, 8.0, 12 and 24 h into 1.5-mL heparinized polythene tubes […]. The blood samples were immediately centrifuged at 4500 rpm for 10 min, and the plasma was stored at −80 °C until analysis. The pharmacokinetic parameters (Cmax, tmax, t1/2, Kel, AUC0–t, AUC0–∞, MRT0–t, MRT0–∞) were calculated with the software Winnolin 3.2.

[1] = mean ± SD, n = 6, read-out: tmax
[2] = read-out: tmax (time to maximum plasma concentration)

SMILES	AUC(0-inf) (mean ± SD) [µg·h/mL]	AUC(0-t) (mean ± SD) [µg·h/mL]	Cmax (mean ± SD) [µg/mL]	half-life (mean ± SD) [h]	MRT last (mean ± SD) [h]	MRT inf (mean ± SD) [h]	Tmax [1] [h]	Kel (elimination rate constant) (mean ± SD)	Tmax [2] [h]	time of first detection in plasma [min]	time of second maximal plasma concentration	shape of plasma concentration-time curve
CC12CC(O)C3CC1(OC1OC(CO)C(O)C(O)C1O)C3(COC(=O)c1ccccc1)C(=O)O2 (centres unmarked) [Albiflorin, albiflorin]	0.135 ± 0.0656	0.128 ± 0.0649	0.0583 ± 0.0275	7.11 ± 4.57	4.18 ± 1.58	6.34 ± 4.5	0.39 ± 0.09	0.13 ± 0.06	–	–	–	–
COc1cc(/C=C/C(=O)O)ccc1O [Ferulic acid, ferulic acid]	1.61 ± 0.853	1.58 ± 0.851	0.632 ± 0.244	5.3 ± 1.85	3.97 ± 0.8	4.66 ± 0.52	0.21 ± 0.1	0.15 ± 0.05	0.2	5	–	–
O=c1c(O)c(-c2ccc(O)c(O)c2)oc2cc(O)cc(O)c12 [Quercetin, quercetin]	0.782 ± 0.415	0.766 ± 0.41	0.491 ± 0.168	4.09 ± 1.24	6.4 ± 0.85	7.03 ± 1.02	0.1 ± 0.03	0.19 ± 0.07	0.1	–	~8 h	–
O=C1C[C@@H](c2ccc(O)cc2)Oc2cc(O)ccc21 [Liquiritigenin, liquiritigenin]	0.328 ± 0.198	0.286 ± 0.144	0.0332 ± 0.012	6.43 ± 2.42	8.85 ± 1.09	11.5 ± 3.02	0.19 ± 0.07	0.12 ± 0.06	–	–	about 4 h	double peak
O=C(/C=C/c1ccc(O)cc1)c1ccc(O)cc1O [Isoliquiritigenin, isoliquiritigenin]	0.185 ± 0.0899	0.157 ± 0.0767	0.0336 ± 0.00937	5.82 ± 3.25	5.98 ± 1.5	7.81 ± 3.39	0.39 ± 0.09	0.17 ± 0.12	–	–	about 4 h	double peak
C=C1CCC[C@]2(C)C[C@]3(O)OC(=O)C(C)=C3C[C@@H]12 [Atractylenolide III, atractylenolide III]	1.13 ± 0.487	1.04 ± 0.497	0.23 ± 0.108	6.95 ± 2.65	6.23 ± 1.55	8.6 ± 3.13	0.67 ± 0.26	0.11 ± 0.05	–	–	–	–
C[C@@H]1O[C@@H](O[C@H]2[C@H](O)[C@@H](O)[C@H](O[C@H]3CC[C@]4(C)[C@H]5C=C[C@]67OC[C@@]8(CCC(C)(C)C[C@H]86)[C@@H](O)C[C@@]7(C)[C@]5(C)CC[C@H]4C3(C)C)O[C@@H]2CO[C@@H]2O[C@H](CO)[C@@H](O)[C@H](O)[C@H]2O)[C@H](O)[C@H](O)[C@H]1O [Saikosaponin c, saikosaponin c]	0.00593 ± 0.00219	0.00561 ± 0.00192	0.00096 ± 0.00033	4.23 ± 2.83	6.49 ± 1.17	7.67 ± 2.7	0.42 ± 0.09	0.22 ± 0.11	–	–	–	double peaks
